In ChEMBL document CHEMBL3994643, “Synthesis and glucose-stimulate insulin secretion (GSIS) evaluation of vindoline derivatives” (Bioorg Med Chem Lett, 2017) one finds EC50 data, which are given here for 23 compounds.

Structures are written as SMILES.

The test concerns MIN6. Description: Induction of glucose-stimulated insulin secretion in mouse MIN6 cells after 2 hrs by ELISA. The class given is functional, cell-based. The conditions noted are these: MIN6, 2 h.
Turning to `CC[C@]12C=CCN3CC[C@@]4(c5ccc(OC)cc5N(C)[C@H]4[C@@](O)(C(=O)OC)[C@@H]1OC(C)=O)[C@@H]32`, the EC50 was 50.2 µM. For `CCCCO[C@@H]1[C@]2(CC)C=CCN3CC[C@@]4(c5ccc(OC)cc5N(C)[C@H]4[C@@]1(O)C(=O)OC)[C@@H]32` the value was more than 100 µM; for `CCCOC[C@@]1(O)[C@H](OC(C)=O)[C@]2(CC)C=CCN3CC[C@@]4(c5ccc(OC)cc5N(C)[C@@H]14)[C@@H]32`, 41.5 µM. Then `CC[C@]12C=CCN3CC[C@@]4(c5ccc(OC)cc5N(C)[C@H]4[C@@](O)(COC)[C@@H]1OC(C)=O)[C@@H]32`, with 41 µM; and `CCC(=O)O[C@@H]1[C@]2(CC)C=CCN3CC[C@@]4(c5ccc(OC)cc5N(C)[C@H]4[C@@]1(O)C(=O)OC)[C@@H]32`, with 32.6 µM. For `CCO[C@@H]1[C@]2(CC)C=CCN3CC[C@@]4(c5ccc(OC)cc5N(C)[C@H]4[C@@]1(O)C(=O)OC)[C@@H]32` the value was 62.2 µM; for `CCC(=O)NC[C@@]1(O)[C@H](OC(C)=O)[C@]2(CC)C=CCN3CC[C@@]4(c5ccc(OC)cc5N(C)[C@@H]14)[C@@H]32`, 12.7 µM; for `CC[C@]12C=CCN3CC[C@@]4(c5ccc(OC)cc5N(C)[C@H]4[C@@](O)(CNC(=O)C(C)(C)C)[C@@H]1OC(C)=O)[C@@H]32`, 21 µM.

`CC[C@]12CCCN3CC[C@@]4(c5ccc(OC)cc5N(C)[C@H]4[C@@](O)(C(=O)OC)[C@@H]1OC(=O)C(C)C)[C@@H]32`: the response was half-maximal at 14.2 µM (EC50). As to `CC[C@]12C=CCN3CC[C@@]4(c5ccc(OC)cc5N(C)[C@H]4[C@@](O)(C(=O)OC)[C@@H]1O)[C@@H]32`, the EC50 is more than 100 µM. On to `CCCCOC[C@@]1(O)[C@H](OC(C)=O)[C@]2(CC)C=CCN3CC[C@@]4(c5ccc(OC)cc5N(C)[C@@H]14)[C@@H]32`, for which the EC50 was more than 100 µM. `CCCO[C@@H]1[C@]2(CC)C=CCN3CC[C@@]4(c5ccc(OC)cc5N(C)[C@H]4[C@@]1(O)C(=O)OC)[C@@H]32` returned an EC50 of 64.3 µM.

Compound `CC[C@]12C=CCN3CC[C@@]4(c5ccc(OC)cc5N(C)[C@H]4[C@@](O)(C(=O)OC)[C@@H]1OC(=O)c1ccccc1)[C@@H]32` came in with an EC50 of 62.2 µM. Then `CC[C@]12C=CCN3CC[C@@]4(c5ccc(OC)cc5N(C)[C@H]4[C@@](O)(COC(=O)C(C)C)[C@@H]1OC(C)=O)[C@@H]32`, with more than 100 µM; and `CC[C@]12C=CCN3CC[C@@]4(c5ccc(OC)cc5N(C)[C@H]4[C@@](O)(C(=O)OC)[C@@H]1OC(=O)C(C)C)[C@@H]32`, with 10.4 µM. `CCOC[C@@]1(O)[C@H](OC(C)=O)[C@]2(CC)C=CCN3CC[C@@]4(c5ccc(OC)cc5N(C)[C@@H]14)[C@@H]32` returned an EC50 of 11 µM. Then `CC[C@]12C=CCN3CC[C@@]4(c5ccc(OC)cc5N(C)[C@H]4[C@@](O)(C(=O)OC)[C@@H]1OC(=O)C1CCCCC1)[C@@H]32`, with 80.5 µM. Then `CC[C@]12C=CCN3CC[C@@]4(c5ccc(OC)cc5N(C)[C@H]4[C@@](O)(C(=O)OC)[C@@H]1OC)[C@@H]32`, with more than 100 µM.

Take `CCC(=O)NC[C@@]1(O)[C@H](OC(=O)C(C)C)[C@]2(CC)C=CCN3CC[C@@]4(c5ccc(OC)cc5N(C)[C@@H]14)[C@@H]32`: the EC50 came out at 18.5 µM.

Compound `CC[C@]12C=CCN3CC[C@@]4(c5ccc(OC)cc5N(C)[C@H]4[C@@](O)(CNC(C)=O)[C@@H]1OC(C)=O)[C@@H]32` registered an EC50 of 19.3 µM. In turn, `CCC(=O)O[C@@H]1[C@]2(CC)CCCN3CC[C@@]4(c5ccc(OC)cc5N(C)[C@H]4[C@@]1(O)C(=O)OC)[C@@H]32` displayed an EC50 of 38.5 µM. Then `CCC(=O)OC[C@@]1(O)[C@H](OC(C)=O)[C@]2(CC)C=CCN3CC[C@@]4(c5ccc(OC)cc5N(C)[C@@H]14)[C@@H]32`, with 51 µM; and `CCOC[C@@]1(O)[C@H](OC(=O)C(C)C)[C@]2(CC)C=CCN3CC[C@@]4(c5ccc(OC)cc5N(C)[C@@H]14)[C@@H]32`, with 14.2 µM.
